In patent publication US9522125B1, “Method of treating cancer” (Macau University of Science and Technology, priority 2015, dated 2016):

What was measured:
[1] = molecular target: ROS1 kinase (Homo sapiens, UniProt P08922); test: In vitro ROS1 enzymatic assay (LanthaScreen Eu kinase binding assay); conditions: room temperature, 1 hour
Procedure: 1.2 In Vitro ROS1 Enzymatic Assay
LanthaScreen® Eu kinase binding assay was used to determine the changes in kinase activity, which is an assay based on the binding and displacement property of the kinase with substrate. Briefly, the assay was performed at room temperature for 1 hour in a total volume of 15 μL, including 5 μL of test compound, 5 μL of kinase/antibody mixture and 5 μL of tracer. The signal of the 384-well plate was then measured at the end of the reactions.

[2] = tested on: HCC78 cells; test: MTT cytotoxicity assay on HCC78 cells; assay type: cell-based; conditions: Homo sapiens, 72 h treatment
Procedure: HCC78 cell line was purchased from the American Type Culture Collection (ATCC) (Manassas, Va., USA). Cells were cultured in RPMI-1640 medium containing 10% fetal bovine serum (FBS), 100 units/mL penicillin, and 100 μg/mL streptomycin under a humidified atmosphere of 5% CO2 at 37° C. Mitoxantrone was dissolved in DMSO.
(§1) 1.3 MTT Cytotoxicity Assay
(§2) 3000 cells were seeded on 96-well plates, then the plates were cultured overnight for cell adhesion, and treated with DMSO or various concentrations of mitoxantrone for 72 h. 10 μL of MTT (5 mg/mL; Sigma) was added in each well, and incubation was continued for another 4 hours, then the dark blue crystals were dissolved in 100 μL resolved solution (10% SDS and 0.1 mM HCL). Finally, the absorbance was measured at 570 nm by a microplate reader (Tecan, Morrisville, N.C., USA). The cell viability was calculated relative to untreated controls, and results were presented based on at least 3 independent experiments.

[3] = tested on: CCD19-Lu cells; test: MTT cytotoxicity assay on normal lung cells CCD19-Lu; assay type: cell-based; conditions: 72 h treatment
Procedure: as §1, §2

[4] = tested on: HCC78 cells; test: Apoptosis analysis (morphology; Annexin-V FITC/PI flow cytometry) in HCC78 cells; assay type: cell-based
Procedure: HCC78 cells were seeded on a 6-well plate, and were allowed to attach overnight. The cells were treated with a dilution series of mitoxantrone for 48 h, collected by trypsin and washed twice with ice-cold PBS, and then resuspended in 100 μl 1× binding buffer. 2 μL Annexin-V FITC and 4 μL PI (100 μg/ml) were added to the solution and mixed well. After incubation for 15 min in the dark at room temperature, 400 μL of 1× binding buffer was added to each tube, where apoptosis level was then quantitatively analyzed using a FACSAria III Flow Cytometer (BD Biosciences, San Jose, Calif., USA).

[5] = tested on: ROS1 phosphorylation; test: Western blot analysis of ROS1 phosphorylation and downstream signaling in HCC78 cells; assay type: cell-based; conditions: 48 h, 5 nM, 10 nM and 20 nM
Procedure: 1.5 Western Blot Analysis
After cells were plated on 6-well plates overnight, a wide concentrations of mitoxantrone were administered for 48 h. Cells were washed twice with cold PBS and then lysed in RIPA lysis buffer containing protease and phosphatase inhibitors, and protein concentration of the cell lysates were measured using the Bio-Rad protein Assay kit (Bio-Rad, Philadelphia, Pa., USA). After equalizing the protein concentrations of the samples, 5× laemmli buffer was added and boiled at 100° C. for 5 min. Equal amounts of protein samples (30 μg) were subjected to SDS-PAGE and separated with a 10% gel; then the separated proteins were transferred to a Nitrocellulose (NC) membrane, which was then exposed to 5% non-fat dried milk in TBS containing 0.1% Tween 20 (0.1% TBST) for 1 h at room temperature, followed by overnight incubation at 4° C. with primary anti-bodies (1:1000 dilutions). After being washed 3 times by TBST, the membranes were incubated with secondary fluorescent antibodies (1:10000 dilutions) to rabbit or mouse, the signal intensity of the membranes was detected by an LI-COR Odessy scanner (Belfast, Me., USA). Antibodies against GAPDH, p-AKT, p-ROS1, ROS1, p-ERK, ERK, p-STAT3, STAT3 were purchased from Cell signaling Technology. Anti-AKT antibody was acquired from Santa Cruz Biotechnology.

ROS1 kinase, sequence (P08922 28-2347): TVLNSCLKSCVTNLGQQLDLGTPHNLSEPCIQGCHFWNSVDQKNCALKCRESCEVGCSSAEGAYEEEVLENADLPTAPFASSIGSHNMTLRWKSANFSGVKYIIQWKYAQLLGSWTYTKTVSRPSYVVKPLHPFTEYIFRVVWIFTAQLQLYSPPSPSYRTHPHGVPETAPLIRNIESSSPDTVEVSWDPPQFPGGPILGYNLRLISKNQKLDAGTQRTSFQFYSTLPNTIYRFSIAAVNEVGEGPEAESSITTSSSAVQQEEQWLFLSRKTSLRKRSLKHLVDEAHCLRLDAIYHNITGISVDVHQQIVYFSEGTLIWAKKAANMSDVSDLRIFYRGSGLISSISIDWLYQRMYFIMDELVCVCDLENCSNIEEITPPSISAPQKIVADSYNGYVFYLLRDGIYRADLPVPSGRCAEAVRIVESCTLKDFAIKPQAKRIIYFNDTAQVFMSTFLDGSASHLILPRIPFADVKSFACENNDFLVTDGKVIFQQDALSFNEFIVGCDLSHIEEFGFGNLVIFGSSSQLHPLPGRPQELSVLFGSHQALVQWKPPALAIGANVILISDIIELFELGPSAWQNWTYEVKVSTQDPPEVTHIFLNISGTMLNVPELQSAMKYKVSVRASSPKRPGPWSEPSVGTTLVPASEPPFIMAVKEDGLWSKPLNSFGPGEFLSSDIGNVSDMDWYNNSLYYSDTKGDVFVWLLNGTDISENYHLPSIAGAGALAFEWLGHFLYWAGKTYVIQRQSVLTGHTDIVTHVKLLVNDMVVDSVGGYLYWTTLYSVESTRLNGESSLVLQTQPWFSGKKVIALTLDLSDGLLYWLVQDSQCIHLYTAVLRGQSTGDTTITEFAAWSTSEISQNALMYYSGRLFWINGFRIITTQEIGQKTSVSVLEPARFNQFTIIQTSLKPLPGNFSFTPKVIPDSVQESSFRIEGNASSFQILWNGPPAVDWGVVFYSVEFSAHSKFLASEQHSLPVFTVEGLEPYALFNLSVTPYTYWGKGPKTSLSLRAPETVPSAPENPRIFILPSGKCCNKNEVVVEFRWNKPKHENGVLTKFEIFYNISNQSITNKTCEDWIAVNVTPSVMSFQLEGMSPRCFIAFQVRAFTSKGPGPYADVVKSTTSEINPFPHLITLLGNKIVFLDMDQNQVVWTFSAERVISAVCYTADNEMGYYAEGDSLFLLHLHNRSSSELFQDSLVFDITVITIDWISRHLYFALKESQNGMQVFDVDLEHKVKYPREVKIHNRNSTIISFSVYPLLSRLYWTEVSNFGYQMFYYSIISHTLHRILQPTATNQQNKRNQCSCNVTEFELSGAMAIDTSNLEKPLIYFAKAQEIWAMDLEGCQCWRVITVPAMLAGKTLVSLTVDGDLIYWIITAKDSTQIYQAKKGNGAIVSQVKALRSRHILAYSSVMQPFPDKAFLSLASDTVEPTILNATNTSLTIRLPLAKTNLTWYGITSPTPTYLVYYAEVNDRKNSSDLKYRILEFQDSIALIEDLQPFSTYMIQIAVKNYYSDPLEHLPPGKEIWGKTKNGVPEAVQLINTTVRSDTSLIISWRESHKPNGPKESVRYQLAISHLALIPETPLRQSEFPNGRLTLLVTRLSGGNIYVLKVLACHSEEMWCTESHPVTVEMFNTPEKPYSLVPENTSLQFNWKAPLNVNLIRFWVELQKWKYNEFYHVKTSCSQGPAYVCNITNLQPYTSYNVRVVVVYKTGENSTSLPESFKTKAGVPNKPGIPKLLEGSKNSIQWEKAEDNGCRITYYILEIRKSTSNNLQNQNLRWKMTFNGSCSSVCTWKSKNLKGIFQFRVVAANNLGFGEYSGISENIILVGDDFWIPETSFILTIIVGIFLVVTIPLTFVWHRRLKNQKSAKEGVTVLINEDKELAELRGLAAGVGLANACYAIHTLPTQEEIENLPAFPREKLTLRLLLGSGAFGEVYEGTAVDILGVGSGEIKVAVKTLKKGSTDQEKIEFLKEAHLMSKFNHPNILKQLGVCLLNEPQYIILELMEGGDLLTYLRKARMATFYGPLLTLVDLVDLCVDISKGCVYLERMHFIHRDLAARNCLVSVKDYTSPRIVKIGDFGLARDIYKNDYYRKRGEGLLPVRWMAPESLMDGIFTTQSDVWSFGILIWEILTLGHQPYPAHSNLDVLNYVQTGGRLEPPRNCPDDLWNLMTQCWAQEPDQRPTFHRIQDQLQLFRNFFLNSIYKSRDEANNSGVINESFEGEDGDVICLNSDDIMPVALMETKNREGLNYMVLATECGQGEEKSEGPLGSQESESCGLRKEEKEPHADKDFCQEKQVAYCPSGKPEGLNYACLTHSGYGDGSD

With O=C1c2c(O)ccc(O)c2C(=O)c2c(NCCNCCO)ccc(NCCNCCO)c21 [Mitoxantrone, mitoxantrone] the IC50 [1] was 36 nM, the IC50 [2] was 13.8 ± 2.49 nM and the “fold of IC50 in CCD19-Lu over IC50 on HCC78” value [3] was “at least 11.6 fold”. For the same molecule, the IC50 ([3]; Homo sapiens, CCD 19Lu, CCD19-Lu normal lung cells) was greater than 160 nM, the “induction of apoptosis (flow cytometry)” value ([4]; 48 h, 5 nM, 10 nM and 20 nM, compared with the control group) was “induced significant apoptosis levels” and the “concentration from which cells detached and became smaller (morphological indication of apoptosis)” value ([4]; FIG. 4) was no less than 10 nM. For the same molecule, the “ROS1 phosphorylation and downstream signaling molecules Erk1/2, STAT3 and AKT (western blot)” value [5] was “dose-dependent decrease”.
